assay: Determination of total drug concentration in rat brain (BBB penetration); type: in vivo; settings: male SD rat, 2 mg/kg IV infusion for 4 hours, brain collected at end of 4 hours
Protocol: BB. Example 9: Determination of Total Drug Concentration in Rat Brain
In Vivo Experimental Procedures
Infuse male SD rat at 2 mg/kg dose for 4 hours through IV administration route. Collect brain tissues at the end of 4 hours.
Sample Preparation Procedures
Dilute brain tissue by adding homogenization solvent (1:4, w/v). Homogenize diluted brain tissue samples. Extract analyte by adding organic solvent (1:4, v/v) with spiked internal standard. Vortex and centrifuge the samples. Remove supernatant and dilute with HPLC compatible solvent (1:3, v/v).
Inject diluted extract into LC-MS/MS system using reversed phase high performance liquid chromatography coupled with electrospray ionization and selected reaction monitoring. Determine the total drug concentration in brain samples by quantitating against the standard curve prepared using the same matrix.
The following data provides blood brain barrier (BBB) penetration activity for a selection of inventive compounds where were directly compared to sotorasib and adagrasib (concentration in brain measured in ng/g).
Compounds that were measured as having a total concentration in the brain of at least 60 ng/g are indicated as “+”.

SMILES | BBB activity
C=CC(=O)N1[C@H](C)CN(c2nc(=O)n3c4c(c(-c5ccccc5)c(C(F)(F)F)cc24)SC[C@@H]3COC)C[C@@H]1C [Example 13-20] | + (Compounds that were measured as having a total concentration in the brain of at least 60 ng/g are indicated as “+”)
C=CC(=O)N1CCN(c2nc(=O)n3c4c(c(-c5cc(Cl)c(F)cc5F)c(C(F)(F)F)cc24)SC[C@@H]3COC)CC1 [Example 13-5] | + (Compounds that were measured as having a total concentration in the brain of at least 60 ng/g are indicated as “+”)
C=CC(=O)N1C[C@H](C)N(c2nc(=O)n3c4c(c(-c5cc(Cl)c(F)cc5F)c(C(F)(F)F)cc24)SC[C@@H]3CN2C[C@@H]3C[C@H]2CO3)C[C@H]1C (atropisomer, axis not shown) [Example 13-71] | − (Compounds that did not meet this threshold are indicated as “−”)
C=CC(=O)N1[C@H](C)CN(c2nc(=O)n3c4c(c(-c5cc(Cl)c(F)cc5F)c(C(F)(F)F)cc24)CC[C@@H]3CC2CCC3(CC2)COC3)C[C@@H]1C [Example 13-63] | − (Compounds that did not meet this threshold are indicated as “−”)
C=CC(=O)N1[C@H](C)CN(c2nc(=O)n3c4c(c(-c5cc(Cl)c(F)cc5F)c(C(F)(F)F)cc24)SCC2(COC2)C3)C[C@@H]1C (atropisomer, axis not shown) [Example 13-44] | + (Compounds that were measured as having a total concentration in the brain of at least 60 ng/g are indicated as “+”)
C=CC(=O)N1CCN(c2nc(=O)n3c4c(c(-c5ccc(F)cc5F)c(C(F)(F)F)cc24)SC[C@@H]3COC)CC1 (atropisomer, axis not shown) [Example 13-17] | + (Compounds that were measured as having a total concentration in the brain of at least 60 ng/g are indicated as “+”)
C=CC(=O)N1[C@H](C)CN(c2nc(=O)n3c4c(c(-c5ccc(F)cc5F)c(C(F)(F)F)cc24)SC[C@@H]3COC)C[C@@H]1C (atropisomer, axis not shown) [Example 13-15] | + (Compounds that were measured as having a total concentration in the brain of at least 60 ng/g are indicated as “+”)
C=CC(=O)N1CCN(c2nc(=O)n3c4c(c(-c5ccc(F)cc5)c(C(F)(F)F)cc24)SC[C@@H]3CN2CCN(C3CC3)CC2)CC1 [Example 13-33] | + (Compounds that were measured as having a total concentration in the brain of at least 60 ng/g are indicated as “+”)
C=CC(=O)N1[C@H](C)CN(c2nc(=O)n3c4c(c(-c5cc(Cl)c(F)cc5F)c(C(F)(F)F)cc24)SC[C@@H](N2CCOCC2)C3)C[C@@H]1C [Example 13-84] | − (Compounds that did not meet this threshold are indicated as “−”)
C=CC(=O)N1[C@H](C)CN(c2nc(=O)n3c4c(c(-c5ccc(F)cc5)c(C(F)(F)F)cc24)SC[C@H](OCC)C3)C[C@@H]1C [Example 13-41] | + (Compounds that were measured as having a total concentration in the brain of at least 60 ng/g are indicated as “+”)
C=CC(=O)N1[C@H](C)CN(c2nc(=O)n3c4c(c(-c5cc(Br)c(F)cc5F)c(C(F)(F)F)cc24)SC[C@@H]3COC)C[C@@H]1C (atropisomer, axis not shown) [Example 13-4] | + (Compounds that were measured as having a total concentration in the brain of at least 60 ng/g are indicated as “+”)
C=CC(=O)N1[C@H](C)CN(c2nc(=O)n3c4c(c(-c5ccc(F)cc5F)c(C(F)(F)F)cc24)SC[C@@H]3CN2CCN(C3CC3)CC2)C[C@@H]1C [Example 13-26] | + (Compounds that were measured as having a total concentration in the brain of at least 60 ng/g are indicated as “+”)
C=CC(=O)N1C[C@H](C)N(c2nc(=O)n3c4c(c(-c5cc(Cl)c(F)cc5F)c(Cl)cc24)SC[C@@H]3CN2CCN(CC(F)F)CC2)C[C@H]1C [Example 13-56] | − (Compounds that did not meet this threshold are indicated as “−”)
C=CC(=O)N1[C@H](C)CN(c2nc(=O)n3c4c(c(-c5ccc(F)cc5)c(C(F)(F)F)cc24)SC[C@H](c2ccccc2)C3)C[C@@H]1C [Example 13-47] | − (Compounds that did not meet this threshold are indicated as “−”)
C=CC(=O)N1[C@H](C)CN(c2nc(=O)n3c4c(c(-c5ccc(F)cc5)c(C(F)(F)F)cc24)SC[C@@H](OCOC)C3)C[C@@H]1C [Example 13-83] | − (Compounds that did not meet this threshold are indicated as “−”)
C=CC(=O)N1[C@H](C)CN(c2nc(=O)n3c4c(c(-c5ccc(F)c6sccc56)c(C(F)(F)F)cc24)SC[C@@H]3COC)C[C@@H]1C [Example 13-68] | − (Compounds that did not meet this threshold are indicated as “−”)
C=C(F)C(=O)N1CCN(c2nc(OC[C@H]3CCCN3C)nc3c2CCN(c2cccc4cccc(Cl)c24)C3)C[C@@H]1CC#N [Example 13-75] | − (Compounds that did not meet this threshold are indicated as “−”)

SMILES | BBB activity
C=CC(=O)N1C[C@H](C)N(c2nc(=O)n3c4c(c(-c5ccc(F)cc5F)c(Cl)cc24)OC[C@H]3CCCN2CCC(F)(F)C2)C[C@H]1C [Example 13-80] | − (Compounds that did not meet this threshold are indicated as “−”)
C=CC(=O)N1CCN(c2nc(=O)n3c4c(c(-c5ccc(F)cc5F)c(C(F)(F)F)cc24)SC[C@@H]3CC2CCOCC2)[C@@H](C)C1 [Example 13-88] | − (Compounds that did not meet this threshold are indicated as “−”)
C=CC(=O)N1[C@H](C)CN(c2nc(=O)n3c4c(c(-c5cc(Br)c(F)cc5F)c(C(F)(F)F)cc24)SC[C@@H]3CC)C[C@@H]1C (atropisomer, axis not shown) [Example 13-6] | + (Compounds that were measured as having a total concentration in the brain of at least 60 ng/g are indicated as “+”)
C=CC(=O)N1C[C@H](C)N(c2nc(=O)n3c4c(c(-c5ccc(F)cc5F)c(Cl)cc24)OC[C@H]3CCCN2C[C@H]3C[C@@H]2CO3)C[C@H]1C [Example 13-76] | − (Compounds that did not meet this threshold are indicated as “−”)
C=CC(=O)N1[C@H](C)CN(c2nc(=O)n3c4c(c(-c5cc(Br)c(F)cc5F)c(C(F)(F)F)cc24)SCC2(COC2)C3)C[C@@H]1C [Example 13-36] | + (Compounds that were measured as having a total concentration in the brain of at least 60 ng/g are indicated as “+”)
C=CC(=O)N1[C@H](C)CN(c2nc(=O)n3c4c(c(-c5cc(Cl)c(F)cc5F)c(C(F)(F)F)cc24)SC[C@@H]3CN2C[C@@H]3C[C@H]2CO3)C[C@@H]1C [Example 13-46] | + (Compounds that were measured as having a total concentration in the brain of at least 60 ng/g are indicated as “+”)
C=CC(=O)N1CCN(c2nc(=O)n3c4c(c(-c5ccc(F)cc5F)c(Cl)cc24)SCC3)[C@@H](C)C1 [Example 13-43] | + (Compounds that were measured as having a total concentration in the brain of at least 60 ng/g are indicated as “+”)
C=CC(=O)N1[C@H](C)CN(c2nc(=O)n3c4c(c(-c5cc(Br)c(F)cc5F)c(C(F)(F)F)cc24)SC[C@@H](OC)C3)C[C@@H]1C (atropisomer, axis not shown) [Example 13-70] | − (Compounds that did not meet this threshold are indicated as “−”)
C=CC(=O)N1[C@H](C)CN(c2nc(=O)n3c4c(c(-c5ccc(F)cc5F)c(C(F)(F)F)cc24)SC[C@@H]3COCOC)C[C@@H]1C (atropisomer, axis not shown) [Example 13-60] | − (Compounds that did not meet this threshold are indicated as “−”)
C=CC(=O)N1[C@H](C)CN(c2nc(=O)n3c4c(c(-c5cc(Cl)c(F)cc5F)c(C(F)(F)F)cc24)SC[C@@H](OC)C3)C[C@@H]1C [Example 13-24] | + (Compounds that were measured as having a total concentration in the brain of at least 60 ng/g are indicated as “+”)
C=CC(=O)N1CCN(c2nc(=O)n3c4c(c(-c5ccc(F)cc5F)c(C(F)(F)F)cc24)SC[C@@H]3COC)[C@@H](C)C1 [Example 13-35] | + (Compounds that were measured as having a total concentration in the brain of at least 60 ng/g are indicated as “+”)
C=CC(=O)N1[C@H](C)CN(c2nc(=O)n3c4c(c(-c5ccc(Cl)cc5F)c(C(F)(F)F)cc24)SC[C@@H]3COC)C[C@@H]1C (atropisomer, axis not shown) [Example 13-3] | + (Compounds that were measured as having a total concentration in the brain of at least 60 ng/g are indicated as “+”)
C=CC(=O)N1[C@H](C)CN(c2nc(=O)n3c4c(c(-c5ccc(F)cc5)c(C(F)(F)F)cc24)SC[C@@H](OCC2CC2)C3)C[C@@H]1C [Example 13-48] | − (Compounds that did not meet this threshold are indicated as “−”)
C=CC(=O)N1C[C@H](C)N(c2nc(=O)n3c4c(c(-c5ccc(F)cc5F)c(Cl)cc24)OC[C@H]3CC2CCN(C)CC2)C[C@H]1C [Example 13-85] | − (Compounds that did not meet this threshold are indicated as “−”)
C=CC(=O)N1[C@H](C)CN(c2nc(=O)n3c4c(c(-c5ccc(F)c(Cl)c5)c(C(F)(F)F)cc24)SC[C@@H](OCC)C3)C[C@@H]1C [Example 13-82] | − (Compounds that did not meet this threshold are indicated as “−”)
C=CC(=O)N1C[C@H](C)N(c2nc(=O)n3c4c(c(-c5ccc(F)cc5F)c(Cl)cc24)OC[C@H]3CC2CCN(CC(F)F)CC2)C[C@H]1C [Example 13-59] | − (Compounds that did not meet this threshold are indicated as “−”)
C=CC(=O)N1CCN(c2nc(=O)n3c4c(c(-c5ccc(F)cc5F)c(C(F)(F)F)cc24)SC[C@H](OC)C3)CC1 [Example 13-37] | + (Compounds that were measured as having a total concentration in the brain of at least 60 ng/g are indicated as “+”)

From patent publication US20230107642A1 (Erasca, Inc., priority 2020, published 2023)
